Data as given in patent US11214540B2, “Compositions for treating neurodegenerative diseases” (COGNITION THERAPEUTICS, INC., priority 2017, dated 2022).

System: Abeta oligomer-induced membrane trafficking deficits in primary hippocampal neurons
Experiment: Membrane Trafficking/Exocytosis (MTT) assay, Abeta oligomer effect on neurons;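 as to EC50 Abeta: compound potency for inhibiting the Abeta oligomer effect on exocytosis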
Assay type: cell-based, rat
Conditions: AD brain-derived Abeta oligomers
Description: Compounds according to any embodiment described herein, were tested for their ability to inhibit an amyloid beta effect on the cells. The compounds generally were able to inhibit the amyloid beta effect as measured by a membrane trafficking/exocytosis assay (MTT assay). The rationale for this assay was as follows:
The present exocytosis assay was adapted for use with mature primary neuronal cultures grown for 3 weeks in vitro. See WO 2011/106785, which is incorporated herein by reference in its entirety. Abeta oligomers cause a dose-dependent decrease in the amount of intracellular vesicles (puncta) filled with reduced purple formazan as measured via image processing using a Cellomics VTI automated microscopy system. […] Increasing the amount of Abeta oligomers eventually results in overt toxicity. Thus, the concentration of neuroactive Abeta oligomers used in the assay is much lower than that causing cell death. […] When configured in this manner, the assay is able to detect compounds that inhibit nonlethal effects of Abeta oligomer whether these compounds act via disruption of oligomers, inhibition of oligomer binding to neurons, or counteraction of signal transduction mechanisms of action initiated by oligomer binding.
Primary hippocampal neurons from E18 Sprague-Dawley rat embryos were plated at optimized concentrations in 384 well plates in NB media (Invitrogen). Neurons were maintained in cultures for 3 weeks, with twice weekly feeding of NB media with N2 supplement (Invitrogen).
A test compound was added to cells at concentrations ranging from 100 uM to 0.001 nM followed by addition of vehicle or Abeta oligomer preparations (3 μM total Abeta protein concentration), and incubated for 1 to 24 hr at 37° C. in 5% CO2. MTT reagent (3-(4,5-dimethylthizaol-2yl)-2,5diphenyl tetrazolium bromide) (Roche Molecular Biochemicals) was reconstituted in phosphate buffered saline to 5 mg/mL. 10 μL of MTT labeling reagent is added to each well and incubated at 37° C. for 1 h, then imaged. Exocytosis was assessed by automated microscopy and image processing to quantify the amount of endocytosed and exocytosed formazan.
Each assay plate was formatted so that compounds are tested with and without Abeta oligomer on each plate. This design eliminates toxic or metabolically active compounds early on in the screening cascade (at the level of the primary screen). Reduced formazan was first visible in intracellular vesicles. Eventual formazan exocytosis was accelerated via Abeta oligomers.
Human amyloid peptide 1-42 was obtained from a number of commercial vendors such as California Peptide, with lot-choice contingent upon quality control analysis. Quality controls of oligomer preparations consist of Westerns to determine oligomer size ranges and relative concentrations, and the MTT assay to confirm exocytosis acceleration without toxicity. Toxicity was monitored in each image-based assay via quantification of nuclear morphology visualized with the DNA binding blue dye DAPI (Invitrogen). Nuclei that are fragmented are considered to be in late stage apoptosis (Majno and Joris '95) and the test would be rejected. Peptide lots producing unusual peptide size ranges or significant toxicity at a standard 1.5 μM concentration on neurons would also be rejected.
Data handling and analysis were accomplished by Cellomics VTI image analysis software and STORE automated database software. Because of the low dynamic range and neuronal well-to-well variability after three weeks in culture, statistical comparisons are made via pairwise Tukey-Kramer analysis to determine the significance of the separation between compound+Abeta oligomers from Abeta alone, and between compound alone from vehicle. The ability of mature primary neurons to more closely approximate the electrophysiologically mediated signal transduction network of the adult brain justifies this screening strategy. […]

Row | Compound | effect on membrane trafficking deficits induced by AD brain-derived Abeta oligomers
1 | COc1cc(CCC(C)NCc2ccc(C(F)(F)F)cc2)ccc1O (stereo not shown) [4-(3-(4-(trifluoromethyl)benzylamino)butyl)-2-methoxyphenol, reference compound] | eliminates the membrane trafficking deficits

Same assay, conditions: Abeta oligomers dosed alone on neurons; read-out: EC50 in the membrane trafficking assay

Row | Compound | EC50
2 | Synthetic Abeta oligomers: Abeta 1-42 oligomers made according to published methods, used as positive controls [reference compound] | 0.82 µM

Same assay, conditions: membrane trafficking; read-out: EC50 Abeta

Row | Compound | EC50
3 | COc1ccc(C(C)(C)CC(C=C(C)C)N2CCC(C(C)C)CC2)cc1 (stereo not shown) [Compound 86] | 0.22 µM
4 | CC(C)=CC(CC(C)(C)c1ccc(Cl)cc1)N1CCC(C(C)C)CC1 (stereo not shown) [Compound 87] | 20 µM
5 | CC(C)=CC(CC(C)(C)c1ccc(Cl)cc1)N1CCC(c2ccnc(N(C)C)c2)CC1 (stereo not shown) [Compound 90] | 20 µM
6 | CC(C)=CC(CCc1ccc(F)cc1)N1CCOCC1 (stereo not shown) [Compound 91] | 20 µM
7 | CC(C)=CC(CCc1ccc(F)cc1)N1CCCCC1 (stereo not shown) [Compound 92] | 20 µM
8 | CC(CC(C)(C)c1ccc(Cl)cc1)N1CCC(O)C1 (stereo not shown) [Compound 255] | 15 µM

Same assay, conditions: substance alone, no Abeta oligomer

Row | Compound | effect on trafficking when dosed in the absence of Abeta
9 | COc1cc(CCC(C)NCc2ccc(C(F)(F)F)cc2)ccc1O (stereo not shown) [4-(3-(4-(trifluoromethyl)benzylamino)butyl)-2-methoxyphenol, reference compound] | does not affect trafficking

System: not listed separately
Experiment: log P
Assay type: physicochemical
Conditions: not given
Source text: The term “log P” refers to the partition coefficient of a compound. The partition coefficient is the ratio of concentrations of un-ionized compound in each of two solution phases, for example, octanol and water. To measure the partition coefficient of ionizable solute compounds, the pH of the aqueous phase is adjusted such that the predominant form of the compound is un-ionized. The logarithm of the ratio of concentrations of the un-ionized solute compound in the solvents is called log P. The log P is a measure of lipophilicity. For example, log Poct/wat=log([solute]octanol/[solute]un-ionized,water).
Combined Results for particular compounds described herein, with respect to log P, membrane trafficking (uM), sigma-2 receptor affinity, sigma-1 receptor affinity microsomal stability in mouse liver microsomes (MLM) (t1/2, min), t1/2 normalized to CT)10914 and in vitro toxicity potassium channel hERG (IC50, nM) are provided in Table 1: […]

Row | Compound | log P
10 | COc1ccc(C(C)(C)CC(C=C(C)C)N2CCC(C(C)C)CC2)cc1 (stereo not shown) [Compound 86] | 6.37
11 | CC(C)=CC(CC(C)(C)c1ccc(Cl)cc1)N1CCC(C(C)C)CC1 (stereo not shown) [Compound 87] | 7.13
12 | CC(C)=CC(CC(C)(C)c1ccc(Cl)cc1)N1CCC(c2ccnc(N(C)C)c2)CC1 (stereo not shown) [Compound 90] | 7.02
13 | CC(C)=CC(CCc1ccc(F)cc1)N1CCOCC1 (stereo not shown) [Compound 91] | 3.99
14 | CC(C)=CC(CCc1ccc(F)cc1)N1CCCCC1 (stereo not shown) [Compound 92] | 5.06
15 | COc1cc(CCC(C)(C)N2Cc3cccc(C(=O)N4CCN(C(=O)[C@@H]5CCCN5C)CC4)c3C2)ccc1O [Compound 274] | 3.24
16 | COC[C@@H]1CCCN1C(C=C(C)C)CC(C)(C)c1ccc(C(F)(F)F)cc1 (stereo partly shown) [Compound 275] | 5.95
17 | COC[C@@H]1CCCN1C(C)CC(C)(C)c1ccc(C(F)(F)F)cc1 (stereo partly shown) [Compound 276] | 4.95
18 | CCOC(=O)C1CCN(C(C)CC(C)(C)c2ccc(C(F)(F)F)cc2)CC1 (stereo not shown) [Compound 277] | 5.11
19 | CCOC(=O)C1CCN(C(C=C(C)C)CC(C)(C)c2ccccc2)CC1 (stereo not shown) [Compound 278] | 5.23
20 | COc1cc(CCC(C)(C)N2Cc3cccc(C(=O)N4CCN(C(=O)CNC(C)=O)CC4)c3C2)ccc1O [Compound 279] | 1.63
21 | COc1cc(CCC(C)(C)N2Cc3cccc(C(=O)N4CCN(C(=O)[C@@H](Cc5ccccc5)NC(C)=O)CC4)c3C2)ccc1O [Compound 280] | 3.85
22 | COc1cc(CCC(C)(C)N2Cc3cccc(C(=O)N4CCN(C(=O)[C@H](C)O)CC4)c3C2)ccc1O [Compound 281] | 2.48
23 | COc1cc(CCC(C)(C)N2Cc3cccc(C(=O)N4CCN(C(=O)[C@@H]5CCCN5C(C)=O)CC4)c3C2)ccc1O [Compound 282] | 2.47
24 | CC(C)(CCN1CCC(CO)CC1)c1ccc(Cl)cc1 [Compound 283] | 3.62
25 | CC(C)(CCN1CCC(CCO)CC1)c1ccc(Cl)cc1 [Compound 284] | 3.98
26 | CC(C)(CCN1CCC(O)(c2ccccc2)CC1)c1ccc(Cl)cc1 [Compound 285] | 4.81
27 | CCOC(=O)C1CCN(C(C=C(C)C)CC(C)(C)c2ccc(C(F)(F)F)cc2)CC1 (stereo not shown) [Compound 286] | 6.11
28 | CCOC(=O)C1CCN(CCC(C)(C)c2ccc(Cl)cc2)CC1 [Compound 287] | 4.41
29 | CC(C)(CCN1CC[C@@H](O)C1)c1ccc(Cl)cc1 [Compound 288] | 3.1
30 | COC[C@@H]1CCCN1CCC(C)(C)c1ccc(Cl)cc1 [Compound 289] | 4.26
31 | COC(=O)[C@H]1CCCN1CCC(C)(C)c1ccc(Cl)cc1 [Compound 290] | 4.08
32 | COC(=O)C1CCN(CCC(C)(C)c2ccc(Cl)cc2)CC1 [Compound 291] | 4.06
33 | COC(=O)[C@@H]1CCCN1CCC(C)(C)c1ccccc1 [Compound 293] | 3.48
34 | COC(=O)[C@H]1CCCN1CCC(C)(C)c1ccccc1 [Compound 294] | 3.48
35 | COC(=O)C1CCN(CCC(C)(C)c2ccccc2)CC1 [Compound 295] | 3.45
36 | CC1(O)CCN(CCC(C)(C)c2ccccc2)CC1 [Compound 296] | 2.83
37 | CC(C)(CCN1CCC(C)(c2ccccc2)CC1)c1ccccc1 [Compound 297] | 5.81

Further lines, results first:

Row | log P | Compound
38 | 4.26 | COC[C@H]1CCCN1CCC(C)(C)c1ccc(Cl)cc1 [Compound 298]
39 | 3.81 | CCOC(=O)C1CCN(CCC(C)(C)c2ccccc2)CC1 [Compound 299]
40 | 3.65 | COC[C@H]1CCCN1CCC(C)(C)c1ccccc1 [Compound 300]
41 | 2.49 | CC(C)(CCN1CC[C@@H](O)C1)c1ccccc1 [Compound 301]
42 | 3.65 | COC[C@@H]1CCCN1CCC(C)(C)c1ccccc1 [Compound 302]
43 | 4.58 | COCCOCCC1CCN(CCC(C)(C)c2ccc(Cl)cc2)CC1 [Compound 303]
44 | 3.38 | CC(C)(CCN1CCC(CCO)CC1)c1ccccc1 [Compound 304]
45 | 3.1 | COc1cc(CCC(C)(C)N2Cc3cccc(C(=O)N4CCN(C(=O)OCCOC(C)=O)CC4)c3C2)ccc1O [Compound 305]
46 | 3.01 | CC(C)(CCN1CCC(CO)CC1)c1ccccc1 [Compound 308]
47 | 3.96 | COc1cc(CCC(C)(C)N2Cc3cccc(C(=O)N4CCN(C(=O)OCc5oc(=O)oc5C)CC4)c3C2)ccc1O [Compound 309]
48 | 3.2 | COC1CCN(CCC(C)(C)c2ccccc2)CC1 [Compound 310]
49 | 4.69 | CCOC(=O)C1CCN(CCC(C)(C)c2ccc(C(F)(F)F)cc2)CC1 [Compound 311]
50 | 4.53 | COC[C@H]1CCCN1CCC(C)(C)c1ccc(C(F)(F)F)cc1 [Compound 312]
51 | 4.28 | CC(C)(CCN1CCC(C2CCOCC2)CC1)c1ccccc1 [Compound 313]
52 | 4.85 | COCCOCCC1CCN(CCC(C)(C)c2ccc(C(F)(F)F)cc2)CC1 [Compound 314]
53 | 3.37 | CC(C)(CCN1CC[C@@H](O)C1)c1ccc(C(F)(F)F)cc1 [Compound 315]
54 | 4.34 | CC(C)(CCN1CCC(C)(c2ccccc2)CC1)c1ccc(F)cc1 [Compound 316]
55 | 3.8 | COC[C@H]1CCCN1CCC(C)(C)c1ccc(F)cc1 [Compound 318]
56 | 3.8 | COC[C@@H]1CCCN1CCC(C)(C)c1ccc(F)cc1 [Compound 319]
57 | 3.62 | COC(=O)C1CCCN1CCC(C)(C)c1ccc(F)cc1 (stereo not shown) [Compound 320]
58 | 4.61 | COCCCC1CCN(CCC(C)(C)c2ccc(F)cc2)CC1 [Compound 321]
59 | 3.95 | CCOC(=O)C1CCN(CCC(C)(C)c2ccc(F)cc2)CC1 [Compound 322]
60 | 4.15 | C[C@@H]1CCN(CCC(C)(C)c2ccc(F)cc2)C1 [Compound 323]
61 | 5.07 | COCCCC1CCN(CCC(C)(C)c2ccc(Cl)cc2)CC1 [Compound 324]
62 | 4.47 | COCCCC1CCN(CCC(C)(C)c2ccccc2)CC1 [Compound 325]
63 | 3.6 | COC(=O)C1CCN(CCC(C)(C)c2ccc(F)cc2)CC1 [Compound 326]

Same assay, conditions: octanol/water

Row | logP | Compound
64 | 4.07 | COC1CCN(CCC(C)(C)c2ccc(C(F)(F)F)cc2)CC1 [Example 191]
65 | 3.89 | CC(C)(CCN1CCC(CO)CC1)c1ccc(C(F)(F)F)cc1 [Example 306]
66 | 4.53 | COC[C@@H]1CCCN1CCC(C)(C)c1ccc(C(F)(F)F)cc1 [Example 317]

Row | Compound | logP
67 | CC(C)(CCN1CCC(O)(c2ccccc2)CC1)c1ccc(C(F)(F)F)cc1 [Example 307] | 5.08
